In one data set the target is T1, ERβ Human Estrogen NHR (Homo sapiens, UniProt Q92731).
T1 construct: Panlabs (named as assay provider)
Kind of data set: biochemical. Type of data set: binding.

The target of the next data set is EGFR Human RTK Kinase (Homo sapiens, UniProt P00533). The data set can be described thus: biochemical. The note with it: read-out: EGFR Human RTK Kinase Enzyme activity: % inhibition @10 µM.
Another data set addresses 5-HT2A (h) (Homo sapiens, UniProt P28223). The data set can be described thus: biochemical. Type of data set: binding. The note with it: read-out: 5-HT2A (h) (agonist RL): % inhibition @10 µM.
For data set [1] the following is noted: for BER, Cmax, total CI5%: PoD 10 nM.
Description: For human exposure, the aim is to estimate a safe dose when used in a body lotion or face cream. […] Therefore, metabolism was considered by incorporating a model to characterize the rate of metabolism and then fitted it to the metabolism measured in ex vivo viable skin.
An additional safety factor of 3.3 was applied to account for intra-individual variability.
Data set [2] can be described thus: Measured plasma concentrations of daidzein from dietary intake. It counts as in vivo, human. The note with it: PoD 10 nM / 3.14 µM. From the text: Daidzein is present in soy-derived foods and is consumed in large amounts in Asian countries.
The target in a further data set is ERα receptor (Homo sapiens, UniProt P03372).
The subject of the next data set is THRα. Further details: method as in ToxCast. The note with it: ref ToxCast; cited from earlier work.
The conditions of data set [3]: in vivo; cited from earlier work.
Another data set concerns the target Estrogen ERα (h) (Homo sapiens, UniProt P03372). The data set can be described thus: biochemical. The note with it: read-out: Estrogen ERα (h) (agonist RL): % inhibition @10 µM.
Data set [4] deals with T2, human thyroid peroxidase (hTPO) (Homo sapiens, UniProt P07202).
T2 sequence (P07202 19-933): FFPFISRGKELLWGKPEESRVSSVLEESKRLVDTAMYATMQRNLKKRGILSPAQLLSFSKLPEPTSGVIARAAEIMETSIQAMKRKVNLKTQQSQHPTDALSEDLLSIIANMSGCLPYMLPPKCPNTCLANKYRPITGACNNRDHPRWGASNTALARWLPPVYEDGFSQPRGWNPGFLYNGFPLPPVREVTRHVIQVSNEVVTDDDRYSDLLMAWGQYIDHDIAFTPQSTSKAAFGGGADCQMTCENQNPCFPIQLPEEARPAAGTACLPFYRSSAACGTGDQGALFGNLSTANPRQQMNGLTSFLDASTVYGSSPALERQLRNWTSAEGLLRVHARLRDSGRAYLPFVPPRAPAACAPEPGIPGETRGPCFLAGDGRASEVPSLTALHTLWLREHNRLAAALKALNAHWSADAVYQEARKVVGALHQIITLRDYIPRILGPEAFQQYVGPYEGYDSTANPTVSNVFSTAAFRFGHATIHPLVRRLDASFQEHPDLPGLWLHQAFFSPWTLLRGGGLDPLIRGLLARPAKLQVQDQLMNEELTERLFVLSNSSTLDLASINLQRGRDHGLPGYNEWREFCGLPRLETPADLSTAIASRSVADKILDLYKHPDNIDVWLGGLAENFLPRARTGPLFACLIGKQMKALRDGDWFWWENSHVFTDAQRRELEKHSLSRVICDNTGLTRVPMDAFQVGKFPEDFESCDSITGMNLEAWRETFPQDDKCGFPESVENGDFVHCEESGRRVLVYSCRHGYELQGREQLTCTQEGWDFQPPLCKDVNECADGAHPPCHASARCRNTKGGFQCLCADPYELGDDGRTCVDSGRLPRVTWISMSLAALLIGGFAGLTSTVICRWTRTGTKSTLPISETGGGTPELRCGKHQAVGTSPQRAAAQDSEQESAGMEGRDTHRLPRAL
Protocol: hTPO was derived from Nthy-ori 3-1 cells. Cell lysate containing hTPO in Glycine-NaOH buffer (pH
9.0) was incubated for 30 minutes at 37°C in the presence of serial dilutions of the compounds in
(§1) DMSO (1% compound stock in incubation mixture).
was measured on a Berthold luminometer.
(§2) Preincubation with rat liver S9 fraction
(§3) To assess the effect of metabolism on the activity of the test
compound for these assays, preincubations with rat liver S9 were performed.

For the next data set, the target named is Transthyretin (TTR) (Homo sapiens, UniProt P02766).
Another data set has as its system HepG2 and MCF-7 cells. The note with it: 24 h.
The conditions of data set [5]: at 25°C, in vitro; ref Nan et al. (2014); cited from earlier work.
A further data set concerns Sprague-Dawley rats. The note with it: cited from earlier work.
Data set [6] concerns Syrian Hamster Embryo (SHE) cells. The note with it: ref SCCS 2022; cited from earlier work.
Data set [7] deals with mice. The note with it: oral administration; ref SCCS 2022; cited from earlier work.
For data set [8], the system named is mice. The note with it: in the diet; ref SCCS 2022; cited from earlier work.
The target of another data set is T3, TRβ (Homo sapiens, UniProt P10828).
T3 sequence (P10828 1-461): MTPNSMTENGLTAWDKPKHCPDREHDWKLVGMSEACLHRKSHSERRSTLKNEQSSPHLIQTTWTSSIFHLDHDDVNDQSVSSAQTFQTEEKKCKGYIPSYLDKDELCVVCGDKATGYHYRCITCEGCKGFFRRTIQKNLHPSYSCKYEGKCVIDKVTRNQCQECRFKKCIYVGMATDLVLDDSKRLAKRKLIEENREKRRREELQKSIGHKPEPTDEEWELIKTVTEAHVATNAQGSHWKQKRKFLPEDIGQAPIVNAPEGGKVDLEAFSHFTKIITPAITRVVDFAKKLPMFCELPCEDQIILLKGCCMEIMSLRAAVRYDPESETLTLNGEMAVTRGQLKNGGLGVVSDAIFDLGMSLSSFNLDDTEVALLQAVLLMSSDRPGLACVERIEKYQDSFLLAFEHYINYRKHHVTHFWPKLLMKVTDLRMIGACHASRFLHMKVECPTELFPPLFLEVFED
Kind of data set: TRβ CALUX assay (thyroid).

The mark [9] stands for this setting: +S9 (preincubation with rat liver S9).

Values joined by “and” are separate entries in the source; they are usually repeats but may differ in a detail not shown here. Identical values can stand only once. “Also recorded” adds a separate entry of the source. Like-named read-outs stand apart in the source and are kept apart here.

Protocol for 5-HT2A (h): (§4) Chemicals that are flagged for a target are tested in follow-up dose-response assays to establish potency of the interaction.
Pharmacology profiling assays
(§5) targets. The list of targets included the original panel of 44 targets (including receptors, ion channels,
(§6) transporters and enzymes) recommended by 4 major pharmaceutical companies as significant
reasoned to link to pathological effects. Results showing an inhibition or stimulation higher than 50%
(§7) are considered to represent significant effects (i.e. a “hit”).
and 50% are indicative of weak to moderate effects and results showing an inhibition (or stimulation)
(§8) around the control level. For several targets, additional concentration effect assays were conducted to
(§9) determine the potency (IC50). The concentrations tested (in duplicate) ranged between 30 nM and 100
Protocol for EGFR Human RTK Kinase: as §4
(§10) Relative light units (RLUs) of the CALUX assays were analysed as follows. For agonist assays,
(§11) background values (exposure to DMSO only) were subtracted, and the maximum activity of the
(§12) assay’s reference compound was set to 100%. For antagonist assays, the basal signal (exposure to fixed concentration of agonist only) was set to 100%. Activity of the samples was scaled accordingly,
(§13) resulting in expression of the data as “percentage of maximum reference response”. Graphs were
(§14) generated using the statistical software package GraphPad Prism V5.03. Using these graphs, lowest
(§15) effect concentrations (LOECs) and PC50 concentrations were determined; LOEC is defined as the
(§16) maximum reference compound activity for agonist assays, and 20% of the maximum reference
(§17) compound activity for antagonist assays. The PC50 is defined as the concentration where the activity
(§18) of the sample equals 50% of the maximum activity of the assay’s reference compound.
(§19) the test compound was divided by the amount of estrogens and androgens produced by the solvent
(§20) control-exposed cells. A sample was considered ‘active’ if it decreased the hormone production 0.8-
Pharmacology profiling assays
targets. The list of targets included the original panel of 44 targets (including receptors, ion channels, […]
Protocol for ERα receptor: (§21) using the U2-OS based CALUX cytotox bioassay. The cytotoxicity of each test chemical was assessed using the U2-OS based cytotoxicity CALUX bioassay. Concentrations causing >20% reduction of luminescence were considered cytotoxic.
(§22) cytotoxicity (relative induction in the cytotoxicity CALUX bioassay > 80%) were used for final
evaluation of analysis results.
(§23) induction in the cytotox CALUX bioassay > 80%) were used for final evaluation of analysis results.
(§24) All analysis results were expressed in molar (M) final in well.
(§25) For determination of the (anti-)ERα, (anti-)AR and (anti-)TRβ CALUX activities, CALUX cells were
(§26) seeded in assay medium. Following exposure of the CALUX cells to serial dilutions of the
(§27) compounds in triplicate for 24 h, the induction of luciferase production was quantified by measuring
(§28) luminescence following addition of the substrate luciferin. For antagonist assays, a fixed
(§29) concentration of assay agonist was present in each well, to generate a basal signal. On each plate, a
(§30) complete calibration curve for each respective bioassay was also analysed using the relevant reference
compounds. For the analyses in the presence of rat liver S9, 0.03% (v/v) of PB/BNF induced rat liver […]
Relative light units (RLUs) of the CALUX assays were analysed as follows. […]
effect concentrations (LOECs) and PC50 concentrations were determined; LOEC is defined as the […]
Protocol for ERβ Human Estrogen NHR: as §4, §10, §11, §12, §13, §14, §15, §16, §17, §18, §19, §20
Pharmacology profiling assays
as §5, §6
reasoned to link to pathological effects.
as §7, §8, §9
Protocol for H295R cells: as §1
was measured on a Berthold luminometer.
(§31) Serial dilutions of the compounds were incubated in Tris -buffer (pH 8.0) overnight at 4°C in the
(§32) incubation mixture). After incubation, TTR-bound and free T4 were separated on a Bio-Gel P-6DG
(§33) column. The eluate was added to assay medium after which TRβ CALUX cells were exposed for 24 h
For this TRβ CALUX exposure, serum-free assay medium was used.
wells plates in assay medium, and exposed for 48h to a serial dilution of the compound in triplicate
exposure, the assay medium was analysed on the ERα and AR CALUX bioassays as described
Changes in hormone levels compared to a vehicle control exposure
as §2, §3
compound for these assays, preincubations with rat liver S9 were performed. Compounds (10 μl
DMSO stock solution) were incubated for 0 h (control) or 3 h (test condition) in a total volume of 1
ml TRIS buffer in the presence of 1% (v/v) PB/BNF induced rat liver S9 mix (including NADPH and
an NADPH-regenerating system). After incubation, the reaction was stopped by the addition of ice
cold acetone, and samples were frozen to stimulate protein precipitation. After thawing, the
precipitated protein fraction was subsequently removed by centrifugation. The supernatant, cont aining
the metabolites and any remaining non-metabolised parent compound, was concentrated under a
gentle nitrogen flow. After evaporating to dryness, the sample was taken up in 50 μl DMSO followed
by the addition of 50 μl TRIS buffer. This extract was used for the exposure of the hTPO inhibition,
as §10, §11, §12, §13, §14, §15, §16, §17, §18, §19, §20
Protocol for TRβ: as §21, §22
evaluation of analysis results.
as §23, §24, §25, §26, §27, §28, §29, §30
compounds. For the analyses in the presence of rat liver S9, 0.03% (v/v) of PB/BNF induced rat liver
S9 mix (including NADPH and an NADPH-regenerating system) was added to the cells directly after
addition of the compounds, which remained there for the duration of the exposure period (24 h) (van
as §10, §11, §12, §13, §14, §15, §16, §17, §18
Protocol for Transthyretin (TTR): DMSO (1% compound stock in incubation mixture). The incubation mixture was transferred to 96 -
was measured on a Berthold luminometer.
as §31, §32, §33
(see CALUX bioassays). For this TRβ CALUX exposure, serum-free assay medium was used.

As usually defined, the inhibition is the percentage by which the read-out fell short of the control. With `O=c1c(-c2ccc(O)cc2)coc2cc(O)ccc12` [Daidzein, DAIDZEIN], the “ERβ LOEC (binding to receptor)” value at ERβ Human Estrogen NHR (pharmacology profiling, LOEC = 10% of maximum reference compound activity) was 3.25 nM and 3.2 nM. For the same molecule, the inhibition at 10 µM on ERβ Human Estrogen NHR (read-out: ERβ Human Estrogen NHR Binding (Agonist): % inhibition @10 µM) came to 100%; on EGFR Human RTK Kinase, 17.8%; on 5-HT2A (h), 38.9%; on Estrogen ERα (h), 100%. Moreover, the “BERs derived using unbound plasma concentrations” value in [1] (0.02% daidzein) is given as 100–250. In addition, the entries for the “BER, Cmax, total CI5%” value in [1] (body lotion with 0.02% daidzein) and in [1] (body lotion with 0.1% daidzein) were 10/0.68 = 14.7 and 10/3.37 = 3.0, respectively. Also, in data set [2], the “BER, highest measured dietary plasma concentration” value came to 0.003. Besides, the “Anti-ERα antiestrogen LOEC, +S9” value on ERα receptor (+S9 (rat liver)) is listed as above −5 Log M. In addition, the “Anti-ERα antiestrogen LOEC, −S9” value on ERα receptor (−S9) was above −5 Log M. Further, the “Thyroid pathway: Receptor binding (THRα), Call” value with THRα is given as “Neg (Neg = negative result)”. The “Highest measured plasma concentration” value in data set [3] is 3.14 µM.
With `O=c1c(-c2ccc(O)cc2)coc2cc(O)cc(O)c12` [Genistein, 5,7-DIHYDROXY-3-(4-HYDROXYPHENYL)-4-BENZOPYRONE], in [4], the “LOEC for hTPO inhibition” value was 19 ± 8.9 µM and the “TPO LOEC, Inhibition” value is 19 µM. In data set [4] (setting [9]), the “hTPO inhibition (thyroid) LOEC, +S9” value is recorded as above −4.7 Log M. In addition, in data set [4] (−S9), the “hTPO inhibition (thyroid) LOEC, −S9” value was −4.7 Log M. The “TTR LOEC, Inhibition of binding of T4 to TTR” value at Transthyretin (TTR) was 0.21 µM. In addition, on Transthyretin (TTR) (setting [9]), the “TTR binding (thyroid) LOEC, +S9” value is on record as −6.7 Log M. For the same molecule, the “LOEC for inhibition of TTR binding” value on Transthyretin (TTR) (inhibition of binding of T4 to TTR) is 2.1 × 10^−7 ± 6.7 × 10^−8. Besides, the “TTR binding (thyroid) LOEC, −S9” value at Transthyretin (TTR) (−S9) is −6.7 Log M. The “Estrogen synthesis, Increase/decrease” value in the data set with H295R cells is on record as “No effect”. In the data set with H295R cells (setting [9]), the “Steroidogenesis (ERα) 17β-estradiol LOEC, +S9” value was above −6.7 Log M. For the same molecule, the “Steroidogenesis (ERα) 17β-estradiol LOEC, −S9” value in the data set with H295R cells (−S9) is given as above −6 Log M. The “Metabolism by HepG2 or MCF-7 cells” value in the data set with HepG2 and MCF-7 cells is recorded as “metabolized by both cell types”. Besides, in [5], the “pKa (dissociation constant)” value is listed as 7.25 ± 0.84. Also, in the data set with Sprague-Dawley rats (5 ppm in feed, ref NTP 2008), the “NOAEL, female rats” value was 0.5 mg/kg and the “NOAEL, male rats (PoD)” value was 0.3 mg/kg. The “LOAEL, male rats” value in the data set on Sprague-Dawley rats (ref SCCS 2022) was 7 mg/kg. For the same molecule, in data set [6], the “Cell transformation assay (SHE cells) result” value is “one was positive”. In addition, the “In vivo DNA damage/Comet assay result” value in the data set on mice [7] was “Negative in mice after oral administration”. For the same molecule, in the data set with mice [8], the “P53-/- Mouse Tumorigenesis Assay result” value was “negative”. In addition, on TRβ (+S9 (rat liver)), the “TRß thyroid LOEC, +S9” value was above −5 Log M. Moreover, the “TRβ Agonist/antagonist effect” value on TRβ (CALUX) was “did not activate or antagonize the thyroid receptor-β; also recorded: No effect”. At TRβ (−S9), the “TRß thyroid LOEC, −S9” value was above −5 Log M.

Source of the values: publication PMC11220827 (Frontiers in Pharmacology, 2024).
